Experimental data: US20160300038A1, “METHODS OF N[…] DRUG CONCENTRATIONS IN URINE USING PATIENT […] DATA AND TESTING FOR POTENTIAL NON-[…] A CHRONIC DRUG TREATMENT REGIMEN” (Ameritox, Ltd., priority 2015, published 2016)

Test: Urine drug testing (UDT): drug concentration of the primary metabolite (parent drug) in patient urine, e.g. LC/MSMS
Protocol: Non-limiting examples for determining the amount of a drug in fluid of a subject include fluorescence polarization immunoassay (“FPIA,” Abbott Diagnostics), mass spectrometry (MS), gas chromatography-mass spectrometry (GC-MS-MS), liquid chromatography-mass spectrometry (LC-MS-MS), liquid chromatography—exact mass mass spectrometry (LC/QTOF) and the like. […] In one embodiment, a raw level, amount, or concentration of a drug in urine of a subject is measured and reported as a ratio, percent, or in relationship to the amount of fluid. The amount of fluid may be expressed as a unit volume, for example, in L, mL, μL, pL, ounce, etc. In one embodiment, the raw amount of a drug in Urine of a subject may be expressed as an absolute level or value, for example, in g, mg, μg, ng, pg, etc.
Then urine from the subject is tested. […] These values are within normal ranges so the data were processed.
Of the patients considered in this sample 70% were females and 30% were males.

Q: Which “average urine drug concentration” value (Example 7, fifty randomly selected alprazolam patients, average daily dosage 2 mg) does the source give for `Cc1nnc2n1-c1ccc(Cl)cc1C(c1ccccc1)=NC2` [alprazolam] here?
A: 155 ng/m L

Q: What about the “average urine drug concentration” value (alprazolam model population, approximately 280,000 patient results, average daily dosage 3 mg) of the same compound?
A: 375 ng/mL

Q: Which “average urine drug concentration” value (oxycodone model population, approximately 47,000 patient results, average daily dosage 36 mg) does the source give for `COc1ccc2c3c1O[C@H]1C(=O)CC[C@@]4(O)[C@@H](C2)N(C)CC[C@]314` [oxycodone] here?
A: 2120 ng/m L

Q: Which “average urine drug concentration” value (Example 8, fifty patients prescribed diazepam or temazepam (oxazepam as metabolite), average daily dosage 17 mg) does the source give for `O=C1Nc2ccc(Cl)cc2C(c2ccccc2)=NC1O` (stereo not drawn) [oxazepam] here?
A: 1096 ng/m L

Q: What about the “average oxazepam urine drug concentration” value (oxazepam model population, approximately 207,000 patient results, prescribed diazepam and temazepam, average daily dosage 23 mg) of the same compound?
A: 1819 ng/m L

Q: Which “average urine drug concentration” value (hydrocodone model population, approximately 100,000 patient results, average daily dosage 30 mg) does the source give for `COc1ccc2c3c1O[C@H]1C(=O)CC[C@H]4[C@@H](C2)N(C)CC[C@]314` [hydrocodone] here?
A: 1784 ng/m L
